From EP4647433A1, “SHP2 INHIBITOR AND USES THEREOF” (Kanaph Therapeutics Inc., priority 2023, dated 2024)

Key:
SHP2 = target: T1, SHP2 (Homo sapiens, UniProt Q06124); test: Phosphatase assay (PTPase assay, DiFMUP substrate); assay type: biochemical; conditions: full length SHP2 100 pM activated with SHP2 activating peptide, DiFMUP 80 µM, 2 hours; read-out: PTPase assay (IC50)
T1 construct: SHP2 (full length, diluted to 100 pM final concentration in reaction buffer, BPS bioscience, US); purchased BPS bioscience, US
T1 sequence (Q06124 1-593): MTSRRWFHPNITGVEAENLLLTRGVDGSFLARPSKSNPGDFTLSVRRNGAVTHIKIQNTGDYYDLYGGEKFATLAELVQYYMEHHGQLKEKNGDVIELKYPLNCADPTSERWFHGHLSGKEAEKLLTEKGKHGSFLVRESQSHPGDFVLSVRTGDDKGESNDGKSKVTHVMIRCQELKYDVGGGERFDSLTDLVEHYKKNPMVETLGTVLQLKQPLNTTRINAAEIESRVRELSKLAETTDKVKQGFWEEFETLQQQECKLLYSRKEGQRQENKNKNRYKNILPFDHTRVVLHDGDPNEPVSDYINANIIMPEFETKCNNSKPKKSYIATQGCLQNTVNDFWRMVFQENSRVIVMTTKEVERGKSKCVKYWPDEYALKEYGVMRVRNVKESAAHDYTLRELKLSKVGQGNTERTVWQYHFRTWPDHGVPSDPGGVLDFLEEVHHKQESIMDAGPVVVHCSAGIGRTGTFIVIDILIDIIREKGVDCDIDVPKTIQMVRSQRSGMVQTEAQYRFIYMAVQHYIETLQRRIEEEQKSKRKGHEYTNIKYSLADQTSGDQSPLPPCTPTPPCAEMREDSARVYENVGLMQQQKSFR
Protocol: IC50 values were measured using 6,8-difluoro-4-methylumbelliferyl phosphate (DiFMUP) as a substrate. The reaction was performed in a 384-well plate, and fluorescence measurement values were obtained using an EnVision plate reader from PerkinElmer.
SHP2 (full length, diluted to 100 pM final concentration in reaction buffer, BPS bioscience, US) was incubated with the SHP2 activating peptide in reaction buffer (60 mM HEPES (pH 7.2), 75 mM NaCl, 75 mM KCl, 1 mM EDTA, 5 mM DTT, 0.05% P-20) for 30 minutes to activate SHP2. After activation, DMSO [1% (V/V) or the compound according to the Examples (concentration ranging from 0.6 nM to 10 µM)] was added. As a positive control group, the selective SHP2 inhibitors SHP099 (6-(4-amino-4-methylpiperidin-1-yl)-3-(2,3-dichlorophenyl)pyrazin-2-amine, FOCUS bioscience, Austrailia; concentration ranging from 0.6 nM to 10 µM) and TNO155 ((3S,4S)-8-(6-amino-5-((2-amino-3-chloropyridin-4-yl)thio)pyrazin-2-yl)-3-methyl-2-oxa-8-azaspiro[4.5]decan-4-amine, Chemietek, US; concentration ranging from 0.6 nM to 10 µM) were used. [drawing 184]
DiFMUP (80 µM) was added to the reaction and incubated for a total of 2 hours to allow for the reaction to proceed. Thereafter, fluorescence (340 nm excitation, 450 nm emission) values were measured. IC50 values were obtained using Graphad's Prism from the measured values depending on the concentration.
In the phosphatase assay (PTPase assay), when an IC50 value was 100 nM or more, + was indicated, when an IC50 value was 3 nM or more and less than 100 nM, ++ was indicated, and when an IC50 value was less than 3 nM, +++ was indicated.

H358 cells = test: Cell viability (3D spheroid, 3D CellTiter-Glo); assay type: cell-based; conditions: Homo sapiens, NCI-H358, 120 h; H358 spheroids, 5 days treatment
Protocol: Human non-small cell lung cancer cell line H358 cells were purchased from the Korean Cell Line Bank. Cancer cell lines were cultured in the recommended RPMI-1640 medium supplemented with 10% fetal bovine serum (FBS) and 1% penicillin/streptomycin. Monolayer-cultured cancer cell lines were detached by treatment with Trypsin/EDTA, and 100 µL of cell suspension containing 4 x 10^3 cells was each dispensed into SPL3D™ Cell Floater, 96-well round plate, through cell line counting. After culturing for 72 hours to form spheroid, the cells were individually treated with the compounds according to the Examples, which had been serially diluted (minimum 1.5 nM, maximum 10 µM in concentration), and then cultured in a cell incubator for 5 days. To analyze cell viability, the cells were treated with 50 uL of 3D CellTiter-Glo, stirred for 5 minutes at 500 rpm in a plate shaker from Thermo Fisher Scientific, and incubated for 25 minutes at room temperature. Then, the luminescent values were measured using a Varioskan equipment from Thermo Fisher Scientific. IC50 values were obtained using GraphPad's Prism from the measured values depending on the concentration.
In the cell viability assay, when an IC50 value was 50 nM or more, + was indicated, when an IC50 value was 10 nM or more and less than 50 nM, ++ was indicated, and when an IC50 value was less than 10 nM, +++ was indicated.

SMILES | IC50 (SHP2) | IC50 (H358 cells)
COC1(Cn2cnc3ccc(Sc4cnc(N5CCC6(CC5)CO[C@@H](C)[C@H]6N)cn4)c(Cl)c3c2=O)CC1 [Example 20, 6-((5-((3S,4S)-4-amino-3-methyl-2-oxa-8-azaspiro[4.5]decan-8-yl)pyrazin-2-yl)thio)-5-chloro-3-((1-methoxycyclopropyl)methyl)quinazolin-4(3H)-one] | 3 to 100 nM | –
Cn1cnc2ccc(Sc3cnc(N4CCC5(CC4)Cc4ncsc4[C@H]5N)cn3)cc2c1=O [Example 17, (S)-6-((5-(6-amino-4,6-dihydrospiro[cyclopenta[d]thiazole-5,4'-piperidin]-1'-yl)pyrazin-2-yl)thio)-3-methylquinazolin-4(3H)-one] | < 3 nM | < 10 nM
C[C@@H]1OCC2(CCN(c3cnc(Sc4ccc5ncn(CC6CCN(C)CC6)c(=O)c5c4Cl)cn3)CC2)[C@@H]1N [Example 26, 6-((5-((3S,4S)-4-amino-3-methyl-2-oxa-8-azaspiro[4.5]decan-8-yl)pyrazin-2-yl)thio)-5-chloro-3-((1-methylpiperidin-4-yl)methyl)quinazolin-4(3H)-one] | 3 to 100 nM | < 10 nM
C[C@@H]1OCC2(CCN(c3cnc(Sc4ccc5ncn(Cc6ccccc6)c(=O)c5c4Cl)c(N)n3)CC2)[C@@H]1N [Example 12, 6-((3-amino-5-((3S,4S)-4-amino-3-methyl-2-oxa-8-azaspiro[4.5]decan-8-yl)pyrazin-2-yl)thio)-3-benzyl-5-chloroquinazolin-4(3H)-one] | 3 to 100 nM | –
C[C@@H]1OCC2(CCN(c3cnc(Sc4ccc5ncn(CC(C)(F)F)c(=O)c5c4Cl)cn3)CC2)[C@@H]1N [Example 21, 6-((5-((3S,4S)-4-amino-3-methyl-2-oxa-8-azaspiro[4.5]decan-8-yl)pyrazin-2-yl)thio)-5-chloro-3-(2,2-difluoropropyl)quinazolin-4(3H)-one] | < 3 nM | –
N[C@@H]1c2ccccc2CC12CCN(c1cnc(Sc3ccc4ncn(-c5ccccc5)c(=O)c4c3Cl)cn1)CC2 [Example 30, (S)-6-((5-(1-amino-1,3-dihydrospiro[indene-2,4'-piperidin]-1'-yl)pyrazin-2-yl)thio)-5-chloro-3-phenylquinazolin-4(3H)-one] | – | < 10 nM
CC(C)(O)Cn1cnc2ccc(Sc3ncc(N4CCC5(CC4)Cc4ccccc4[C@H]5N)nc3N)c(Cl)c2c1=O [Example 11, (S)-6-((3-amino-5-(1-amino-1,3-dihydrospiro[indene-2,4'-piperidin]-1'-yl)pyrazin-2-yl)thio)-5-chloro-3-(2-hydroxy-2-methylpropyl)quinazolin-4(3H)-one] | < 3 nM | < 10 nM
CC1(CN)CCN(c2cnc(Sc3ccc4ncn(Cc5ccccc5)c(=O)c4c3Cl)c(N)n2)CC1 [Example 13, 6-((3-amino-5-(4-(aminomethyl)-4-methylpiperidine-1-yl)pyrazin-2-yl)thio)-3-benzyl-5-chloroquinazolin-4(3H)-one] | 3 to 100 nM | –
C[C@@H]1OCC2(CCN(c3cnc(Sc4ccc5ncn(CC6(C)CCOCC6)c(=O)c5c4Cl)cn3)CC2)[C@@H]1N [Example 23, 6-((5-((3S,4S)-4-amino-3-methyl-2-oxa-8-azaspiro[4.5]decan-8-yl)pyrazin-2-yl)thio)-5-chloro-3-((4-methyltetrahydro-2H-pyran-4-yl)methyl)quinazolin-4(3H)-one] | < 3 nM | 10 to 50 nM
CC(C)(C)Cn1cnc2ccc(Sc3cnc(N4CCC5(CC4)Cc4ncsc4[C@H]5N)cn3)c(Cl)c2c1=O [Example 5, (S)-6-((5-(6-amino-4,6-dihydrospiro[cyclopenta[d]thiazole-5,4'-piperidin]-1'-yl)pyrazin-2-yl)thio)-5-chloro-3-neopentylquinazolin-4(3H)-one] | < 3 nM | –
COCCn1cnc2ccc(Sc3cnc(N4CCC5(CC4)Oc4ccccc4[C@H]5N)cn3)c(Cl)c2c1=O [Example 22, (R)-6-((5-(3-amino-3H-spiro[benzofuran-2,4'-piperidin]-1'-yl)pyrazin-2-yl)thio)-5-chloro-3-(2-methoxyethyl)quinazolin-4(3H)-one] | 3 to 100 nM | –
COC(F)(F)Cn1cnc2ccc(Sc3cnc(N4CCC5(CC4)CO[C@@H](C)[C@H]5N)cn3)c(Cl)c2c1=O [Example 19, 6-((5-((3S,4S)-4-amino-3-methyl-2-oxa-8-azaspiro[4.5]decan-8-yl)pyrazin-2-yl)thio)-5-chloro-3-(2,2-difluoro-2-methoxyethyl)quinazolin-4(3H)-one] | < 3 nM | –

Other lines, results leading:

IC50 (SHP2) | IC50 (H358 cells) | SMILES
< 3 nM | < 10 nM | COC(C)Cn1ccc2ccc(Sc3cnc(N4CCC5(CC4)CO[C@@H](C)[C@H]5N)cn3)c(Cl)c2c1=O (stereo partly drawn) [Example 14, 7-((5-((3S,4S)-4-amino-3-methyl-2-oxa-8-azaspiro[4.5]decan-8-yl)pyrazin-2-yl)thio)-8-chloro-2-(2-methoxypropyl)isoquinolin-1(2H)-one]
– | < 10 nM | Cn1ccc2ccc(Sc3cnc(N4CCC5(CC4)Cc4ncsc4[C@H]5N)cn3)c(Cl)c2c1=O [Example 16, (S)-7-((5-(6-amino-4,6-dihydrospiro[cyclopenta[d]thiazole-5,4'-pineridin]-1'-yl)pyrazin-2-yl)thio)-8-chloro-2-methylisoquinolin-1(2H)-one]
– | 10 to 50 nM | COC(C)(C)Cn1cnc2ccc(Sc3cnc(N4CCC5(CC4)Cc4scnc4[C@H]5N)cn3)c(Cl)c2c1=O [Example 33, (S)-6-((5-(4-amino-4,6-dihydrospiro[cyclopenta[d]thiazole-5,4'-piperidin]-1'-yl)pyrazin-2-yl)thio)-5-chloro-3-(2-methoxy-2-methylpropyl)quinazolin-4(3H)-one]
3 to 100 nM | < 10 nM | CC(C)n1ccc2ccc(Sc3cnc(N4CCC5(CC4)Cc4ncsc4[C@H]5N)cn3)c(Cl)c2c1=O [Example 40, (S)-7-((5-(6-amino-4,6-dihydrospiro[cyclopenta[d]thiazole-5,4'-piperidin]-1'-yl)pyrazin-2-yl)thio)-8-chloro-2-isopropylisoquinolin-1(2H)-one]
< 3 nM | < 10 nM | COC(C)Cn1ccc2ccc(Sc3cnc(N4CCC5(CC4)Cc4ccccc4[C@H]5N)cn3)c(Cl)c2c1=O (stereo partly drawn) [Example 42, 7-((5-((S)-1-amino-1,3-dihydrospiro[indene-2,4'-piperidin]-1'-yl)pyrazin-2-yl)thio)-8-chloro-2-(2-methoxypropyl)isoquinolin-1(2H)-one]
– | < 10 nM | N[C@@H]1c2scnc2CC12CCN(c1cnc(Sc3ccc4ncn(-c5ccccc5)c(=O)c4c3Cl)cn1)CC2 [Example 38, (S)-6-((5-(6-amino-4,6-dihydrospiro[cyclopenta[d]thiazole-5,4'-piperidin]-1'-yl)pyrazin-2-yl)thio)-5-chloro-3-phenylquinazolin-4(3H)-one]
< 3 nM | 10 to 50 nM | CC(C)n1ccc2ccc(Sc3cnc(N4CCC5(CC4)CO[C@@H](C)[C@H]5N)cn3)c(Cl)c2c1=O [Example 46, 7-((5-((3S,4S)-4-amino-3-methyl-2-oxa-8-azaspiro[4.5]decan-8-yl)pyrazin-2-yl)thio)-8-chloro-2-isopropylisoquinolin-1(2H)-one]
